Test results as given in patent publication US10329289B2, “6,7-dihydro-5H-pyrrolo[3,4-B]pyridin-5-one allosteric modulators of the M4 muscarinic acetylcholine receptor” (Merck Sharp & Dohme Corp., priority 2015, dated 2019).

Biological target: T1, human M4 muscarinic acetylcholine receptor (Homo sapiens, UniProt P08173)
T1 construct: expressed in transfected cells; host or cells: CHO-K1
T1 sequence (P08173 1-479): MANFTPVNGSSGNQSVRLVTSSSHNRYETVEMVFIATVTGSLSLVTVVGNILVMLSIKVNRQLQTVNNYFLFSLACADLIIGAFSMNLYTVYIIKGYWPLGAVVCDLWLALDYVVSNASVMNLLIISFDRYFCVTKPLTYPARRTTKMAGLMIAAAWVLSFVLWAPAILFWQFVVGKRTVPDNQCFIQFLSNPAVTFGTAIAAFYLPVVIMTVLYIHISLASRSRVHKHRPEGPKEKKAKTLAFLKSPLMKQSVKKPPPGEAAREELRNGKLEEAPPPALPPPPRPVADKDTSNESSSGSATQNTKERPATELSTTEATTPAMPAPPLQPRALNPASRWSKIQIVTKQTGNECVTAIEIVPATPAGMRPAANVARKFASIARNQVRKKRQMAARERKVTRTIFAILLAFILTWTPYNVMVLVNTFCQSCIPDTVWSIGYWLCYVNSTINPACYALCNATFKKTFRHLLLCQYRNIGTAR
Assay: human FLIPR-based M4 PAM assay (Ca2+ mobilization, CHO-K1 cells with human M4 receptor and Gαqi5)
Format: cell-based
Details: acetylcholine at 20% of maximum response, read-out: M4 PAM IP
Summary of the method: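 Calcium-mobilization (FLIPR) readout in dye-loaded CHO-K1 cells co-expressing human M4 receptor and Gαqi5. Potentiation measured against acetylcholine at a concentration giving 20% of maximal response, with an optional 70% addition; the reported value is the curve inflection point from a 4-parameter logistic fit.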

SMILES | EC50 [nM]
Cc1c(N2CCC(OCC3CCC3)CC2)nc2c(c1C)C(=O)NC2 [Example 330, 2-(4-(cyclobutylmethoxy)piperidin-1-yl)-3,4-dimethyl-6,7-dihydro-5H-pyrrolo[3,4-b]pyridin-5-one] | 51
Cc1c(N2CCC(Oc3cnn(C)c3)CC2)nc2c(c1C)C(=O)NC2 [Example 331, 3,4-dimethyl-2-(4-((1-methyl-1H-pyrazol-4-yl)oxy)piperidin-1-yl)-6,7-dihydro-5H-pyrrolo[3,4-b]pyridin-5-one] | 33
Cc1c(N2CCC(Oc3ccc4c(c3)COCC4)CC2)nc2c(c1C)C(=O)NC2 [Example 332, 2-(4-(isochroman-7-yloxy)piperidin-1-yl)-3,4-dimethyl-6,7-dihydro-5H-pyrrolo[3,4-b]pyridin-5-one] | 368
Cc1c(N2CCC(Oc3ccc4c(c3)OCC4)CC2)nc2c(c1C)C(=O)NC2 [Example 333, 2-(4-((2,3-dihydrobenzofuran-6-yl)oxy)piperidin-1-yl)-3,4-dimethyl-6,7-dihydro-5H-pyrrolo[3,4-b]pyridin-5-one] | 37
Cc1c(N2CCC(Oc3ccc4c(c3)C[C@H](O)C4)CC2)nc2c(c1C)C(=O)NC2 [Example 334A, (R)-2-(4-((2-hydroxy-2,3-dihydro-1H-inden-5-yl)oxy)piperidin-1-yl)-3,4-dimethyl-6,7-dihydro-5H-pyrrolo[3,4-b]pyridin-5-one] | 67
Cc1c(N2CCC(Oc3ccc4c(c3)C[C@@H](O)C4)CC2)nc2c(c1C)C(=O)NC2 [Example 334B, (S)-2-(4-((2-hydroxy-2,3-dihydro-1H-inden-5-yl)oxy)piperidin-1-yl)-3,4-dimethyl-6,7-dihydro-5H-pyrrolo[3,4-b]pyridin-5-one] | 38
Cc1c(N2CCC(Oc3ccc4c(c3)CCOC4)CC2)nc2c(c1C)C(=O)NC2 [Example 336, 2-(4-(isochroman-6-yloxy)piperidin-1-yl)-3,4-dimethyl-6,7-dihydro-5H-pyrrolo[3,4-b]pyridin-5-one] | 182
Cc1cc2c(nc1N1CCC(OCC3(C)CC3)CC1)CN(C)C2=O [Example 338, 3,6-dimethyl-2-(4-((1-methylcyclopropyl)methoxy)piperidin-1-yl)-6,7-dihydro-5H-pyrrolo[3,4-b]pyridin-5-one] | 40
Cc1cc2c(nc1N1CCC(OCC3(C)CC3)CC1)[C@@H](CO)N(C)C2=O [Example 339, (S)-7-(hydroxymethyl)-3,6-dimethyl-2-(4-((1-methylcyclopropyl)methoxy)piperidin-1-yl)-6,7-dihydro-5H-pyrrolo[3,4-b]pyridin-5-one] | 13
Cc1cc2c(nc1N1CCC(OCC3(C)CC3)CC1)[C@H](CO)N(C)C2=O [Example 340, (R)-7-(hydroxymethyl)-3,6-dimethyl-2-(4-((1-methylcyclopropyl)methoxy)piperidin-1-yl)-6,7-dihydro-5H-pyrrolo[3,4-b]pyridin-5-one] | 2980
CCc1cc2c(nc1N1CCC(OCC3(C)CC3)CC1)[C@@H](CO)N(C)C2=O [Example 341, (S)-3-ethyl-7-(hydroxymethyl)-6-methyl-2-(4-((1-methylcyclopropyl)methoxy)piperidin-1-yl)-6,7-dihydro-5H-pyrrolo[3,4-b]pyridin-5-one] | 23
CCc1cc2c(nc1N1CCC(OCC3(C)CC3)CC1)[C@H](CO)N(C)C2=O [Example 342, (R)-3-ethyl-7-(hydroxymethyl)-6-methyl-2-(4-((1-methylcyclopropyl)methoxy)piperidin-1-yl)-6,7-dihydro-5H-pyrrolo[3,4-b]pyridin-5-one] | 3440
Cc1cncc(OC2CCN(c3nc4c(cc3C)C(=O)N(C)[C@@H]4CO)CC2)c1 [Example 343, (S)-7-(hydroxymethyl)-3,6-dimethyl-2-(4-((5-methylpyridin-3-yl)oxy)piperidin-1-yl)-6,7-dihydro-5H-pyrrolo[3,4-b]pyridin-5-one] | 55
Cc1cncc(OC2CCN(c3nc4c(cc3C)C(=O)N(C)[C@H]4CO)CC2)c1 [Example 344, (R)-7-(hydroxymethyl)-3,6-dimethyl-2-(4-((5-methylpyridin-3-yl)oxy)piperidin-1-yl)-6,7-dihydro-5H-pyrrolo[3,4-b]pyridin-5-one] | 1220
Cc1cc2c(nc1N1CCC(Oc3cccc(C#N)c3)CC1)[C@@H](CO)N(C)C2=O [Example 345, (S)-3-((1-(7-(hydroxymethyl)-3,6-dimethyl-5-oxo-6,7-dihydro-5H-pyrrolo[3,4-b]pyridin-2-yl)piperidin-4-yl)oxy)benzonitrile] | 23
Cc1cc2c(nc1N1CCC(Oc3cccc(C#N)c3)CC1)[C@H](CO)N(C)C2=O [Example 346, (R)-3-((1-(7-(hydroxymethyl)-3,6-dimethyl-5-oxo-6,7-dihydro-5H-pyrrolo[3,4-b]pyridin-2-yl)piperidin-4-yl)oxy)benzonitrile] | 3080
Cc1cc2c(nc1N1CCC(Oc3ccc(F)c(F)c3)CC1)[C@@H](CO)N(C)C2=O [Example 347, (S)-2-(4-(3,4-difluorophenoxy)piperidin-1-yl)-7-(hydroxymethyl)-3,6-dimethyl-6,7-dihydro-5H-pyrrolo[3,4-b]pyridin-5-one] | 28
Cc1cc2c(nc1N1CCC(Oc3ccc(F)c(F)c3)CC1)[C@H](CO)N(C)C2=O [Example 348, (R)-2-(4-(3,4-difluorophenoxy)piperidin-1-yl)-7-(hydroxymethyl)-3,6-dimethyl-6,7-dihydro-5H-pyrrolo[3,4-b]pyridin-5-one] | 8170
Cc1cc2c(nc1N1CCC(Oc3ccc4c(c3)COCC4)CC1)[C@@H](CO)N(C)C2=O [Example 349, (S)-7-(hydroxymethyl)-2-(4-(isochroman-7-yloxy)piperidin-1-yl)-3,6-dimethyl-6,7-dihydro-5H-pyrrolo[3,4-b]pyridin-5-one] | 22
Cc1cc2c(nc1N1CCC(Oc3ccc4c(c3)COCC4)CC1)[C@H](CO)N(C)C2=O [Example 350, (R)-7-(hydroxymethyl)-2-(4-(isochroman-7-yloxy)piperidin-1-yl)-3,6-dimethyl-6,7-dihydro-5H-pyrrolo[3,4-b]pyridin-5-one] | 980

Further lines, results first:

EC50 [nM] | SMILES
245 | CO[C@@H]1Cc2ccc(OC3CCN(c4nc5c(c(C)c4C)C(=O)NC5)CC3)cc2C1 [Example 335A, (R)-2-(4-((2-methoxy-2,3-dihydro-1H-inden-5-yl)oxy)piperidin-1-yl)-3,4-dimethyl-6,7-dihydro-5H-pyrrolo[3,4-b]pyridin-5-one]
259 | CO[C@H]1Cc2ccc(OC3CCN(c4nc5c(c(C)c4C)C(=O)NC5)CC3)cc2C1 [Example 335B, (5)-2-(4-((2-methoxy-2,3-dihydro-1H-inden-5-yl)oxy)piperidin-1-yl)-3,4-dimethyl-6,7-dihydro-5H-pyrrolo[3,4-b]pyridin-5-one]
650 | Cc1c(N2CC[C@@H](Oc3cnn(C)c3)C(F)(F)C2)nc2c(c1C)C(=O)NC2 [Example 336B, (R)-2-(3,3-difluoro-4-((1-methyl-1H-pyrazol-4-yl)oxy)piperidin-1-yl)-3,4-dimethyl-6,7-dihydro-5H-pyrrolo[3,4-b]pyridin-5-one]
33 | Cc1c(N2CC[C@H](Oc3cnn(C)c3)C(F)(F)C2)nc2c(c1C)C(=O)NC2 [Example 336C, (S)-2-(3,3-difluoro-4-((l-methyl-1H-pyrazol-4-yl)oxy)piperidin-1-yl)-3,4-dimethyl-6,7-dihydro-5H-pyrrolo[3,4-b]pyridin-5-one]
9 | Cc1c(N2CC[C@@H](OCC3(C)CC3)[C@@H](F)C2)nc2c(c1C)C(=O)N(C)[C@@H]2CO [Example 341A, (S)-2-((3S,4R)-3-fluoro-4-((1-methylcyclopropyl)methoxy)piperidin-1-yl)-7-(hydroxymethyl)-3,4,6-trimethyl-6,7-dihydro-5H-pyrrolo[3,4-b]pyridin-5-one]
884 | Cc1c(N2CC[C@@H](OCC3(C)CC3)[C@@H](F)C2)nc2c(c1C)C(=O)N(C)[C@H]2CO [Example 342A, (R)-2-((3S,4R)-3-fluoro-4-((1-methylcyclopropyl)methoxy)piperidin-1-yl)-7-(hydroxymethyl)-3,4,6-trimethyl-6,7-dihydro-5H-pyrrolo[3,4-b]pyridin-5-one]
27 | COc1ccc(OC2CCN(c3nc4c(c(C)c3C)C(=O)N(C)[C@@H]4CO)CC2)cn1 [Example 343A, (S)-7-(hydroxymethyl)-2-(4-((6-methoxypyridin-3-yl)oxy)piperidin-1-yl)-3,4,6-trimethyl-6,7-dihydro-5H-pyrrolo[3,4-b]pyridin-5-one]
760 | COc1ccc(OC2CCN(c3nc4c(c(C)c3C)C(=O)N(C)[C@H]4CO)CC2)cn1 [Example 344A, (R)-7-(hydroxymethyl)-2-(4-((6-methoxypyridin-3-yl)oxy)piperidin-1-yl)-3,4,6-trimethyl-6,7-dihydro-5H-pyrrolo[3,4-b]pyridin-5-one]
22 | Cc1cc2c(nc1N1CCC(Oc3ccc4c(c3)CCOC4)CC1)[C@@H](CO)N(C)C2=O [Example 349A, (S)-7-(hydroxymethyl)-2-(4-(isochroman-6-yloxy)piperidin-1-yl)-3,6-dimethyl-6,7-dihydro-5H-pyrrolo[3,4-b]pyridin-5-one]
